# Source: PMC8188729 (Nature, 2020)
# Several values for one entry are separate records, joined by “and”; a condition that tells them apart may be missing. Equal entries are not always repeated.
# Assays:
# [1] = test system: HIV-1 recombinant strains resistant to NRTIs, NNRTIs, INSTIs, PIs or MIs; format: cell-based
# [2] = Cytotoxicity assay; format: cell-based; details: human, primary human hepatocytes
# [3] = Cytotoxicity assay; format: cell-based; details: human, Gal-PC-3 cells
# [4] = Cytotoxicity assay; format: cell-based; details: human, MT-4 cells
# [5] = Cytotoxicity assay; format: cell-based; details: human, quiescent PBMCs
# [6] = Cytotoxicity assay; format: cell-based; details: human, primary CD4+ T-lymphocytes
# [7] = Cytotoxicity assay; format: cell-based, human; details: human, stimulated PBMCs
# [8] = Cytotoxicity assay; format: cell-based; details: human, monocyte-derived macrophages
# [9] = Cytotoxicity assay; format: cell-based; details: human, Gal-HepG2 cells
# [10] = Cytotoxicity assay; format: cell-based; details: human, Huh-7 cells
# [11] = Cytotoxicity assay; format: cell-based; details: human, MRC-5 cells
compound,measurement,setting,value
"O=C1Nc2ccc(Cl)cc2[C@@](C#CC2CC2)(C(F)(F)F)O1 [EFV, efavirenz, reference compound]",Fold resistance,[1],>22.5 (3)
"C=C(C)[C@@H]1CC[C@]2(C(=O)O)CC[C@]3(C)[C@H](CC[C@@H]4[C@@]5(C)CC[C@H](OC(=O)CC(C)(C)C(=O)O)C(C)(C)[C@@H]5CC[C@]43C)[C@@H]12 [BVM, bevirimat, reference compound]",Fold resistance,[1],>67.5 (6) and >67.5 (7)
"COc1ccc(C[C@H](N)C(=O)N[C@H]2[C@@H](O)[C@H](n3cnc4c(N(C)C)ncnc43)O[C@@H]2CO)cc1 [Puromycin, reference compound]",CC50,[2],1.6 ± 0.6 µM
same,CC50,[3],0.4 µM
same,CC50,[4],0.2 ± 0.1 µM
same,CC50,[5],0.6 ± 1.5 µM
same,CC50,[6],0.2 ± 0.1 µM
same,CC50,[7],0.2 ± 0.1 µM
same,CC50,[8],4.5 ± 2.8 µM
same,CC50,[9],1 ± 1.7 µM
same,CC50,[10],0.5 µM
same,CC50,[11],0.3 µM
"COc1cc2c(cc1Cc1cccc(Cl)c1F)c(=O)c(C(=O)O)cn2[C@H](CO)C(C)C [EVG, elvitegravir, reference compound]",Fold resistance,[1],>53.8 (3) and >52.9 (3)
